Source: US7994336B2, “Azetidine compounds as orexin receptor antagonists” (Actelion Pharmaceuticals Ltd., priority 2006, dated 2011)

Key:
human orexin-1 receptor = target: T1, human orexin-1 receptor (Homo sapiens, UniProt O43613); assay: Intracellular calcium measurements (FLIPR), orexin receptor antagonistic activity; type: cell-based; conditions: CHO cells expressing human orexin-1 receptor; 10 nM orexin-A as agonist; fluo-3 AM calcium signal; read-out: OX1 IC50
T1 construct: expressed in transfected cells; host or cells: CHO cells (grown under G418 selection)
T1 sequence (O43613 1-425): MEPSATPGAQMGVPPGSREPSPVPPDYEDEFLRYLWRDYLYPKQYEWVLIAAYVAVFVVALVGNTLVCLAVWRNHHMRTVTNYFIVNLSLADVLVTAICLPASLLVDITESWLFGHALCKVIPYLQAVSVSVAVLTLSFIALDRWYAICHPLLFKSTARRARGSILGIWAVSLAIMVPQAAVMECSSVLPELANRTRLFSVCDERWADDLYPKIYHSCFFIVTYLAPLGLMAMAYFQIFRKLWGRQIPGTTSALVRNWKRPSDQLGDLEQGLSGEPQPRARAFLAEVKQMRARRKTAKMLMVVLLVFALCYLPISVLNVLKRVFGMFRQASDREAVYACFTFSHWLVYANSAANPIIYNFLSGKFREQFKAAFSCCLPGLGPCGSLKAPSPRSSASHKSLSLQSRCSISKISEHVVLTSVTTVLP
Method: (§1) The orexin receptor antagonistic activity of the compounds of formula (I) is determined in accordance with the following experimental method.
(§2) Chinese hamster ovary (CHO) cells expressing the human orexin-1 receptor and the human orexin-2 receptor, respectively, are grown in culture medium (Ham F-12 with L-Glutamine) containing 300 μg/ml G418, 100 U/ml penicillin, 100 μg/ml streptomycin and 10% inactivated fetal calf serum (FCS). The cells are seeded at 80′000 cells/well into 96-well black clear bottom sterile plates (Costar) which have been precoated with 1% gelatine in Hanks' Balanced Salt Solution (HBSS). All reagents are from Gibco BRL. The seeded plates are incubated overnight at 37° C. in 5% CO2.
(§3) Human orexin-A as an agonist is prepared as 1 mM stock solution in methanol:water (1:1), diluted in HBSS containing 0.1% bovine serum albumin (BSA) and 2 mM HEPES for use in the assay at a final concentration of 10 nM.
(§4) Antagonists are prepared as 10 mM stock solution in DMSO, then diluted in 96-well plates, first in DMSO, then in HBSS containing 0.1% bovine serum albumin (BSA) and 2 mM HEPES.
(§5) On the day of the assay, 100 μl of loading medium (HBSS containing 1% FCS, 2 mM HEPES, 5 mM probenecid (Sigma) and 3 μM of the fluorescent calcium indicator fluo-3 AM (1 mM stock solution in DMSO with 10% pluronic acid) (Molecular Probes) is added to each well.
(§6) The 96-well plates are incubated for 60 min at 37° C. in 5% CO2. The loading solution is then aspirated and cells are washed 3 times with 200 μl HBSS containing 2.5 mM probenecid, 0.1% BSA, 2 mM HEPES. 100 μl of that same buffer is left in each well. Within the Fluorescent Imaging Plate Reader (FLIPR, Molecular Devices), antagonists are added to the plate in a volume of 50 μl, incubated for 20 min and finally 100 μl of agonist is added. Fluorescence is measured for each well at 1 second intervals, and the height of each fluorescence peak is compared to the height of the fluorescence peak induced by 10 nM orexin-A with buffer in place of antagonist. For each antagonist, IC50 value (the concentration of compound needed to inhibit 50% of the agonistic response) is determined.

human orexin-2 receptor = target: T2, human orexin-2 receptor (Homo sapiens, UniProt O43614); assay: as above; type: cell-based; conditions: CHO cells expressing human orexin-2 receptor; 10 nM orexin-A as agonist; fluo-3 AM calcium signal; read-out: OX2 IC50
T2 construct: expressed in transfected cells; host or cells: CHO cells (grown under G418 selection)
T2 sequence (O43614 1-444): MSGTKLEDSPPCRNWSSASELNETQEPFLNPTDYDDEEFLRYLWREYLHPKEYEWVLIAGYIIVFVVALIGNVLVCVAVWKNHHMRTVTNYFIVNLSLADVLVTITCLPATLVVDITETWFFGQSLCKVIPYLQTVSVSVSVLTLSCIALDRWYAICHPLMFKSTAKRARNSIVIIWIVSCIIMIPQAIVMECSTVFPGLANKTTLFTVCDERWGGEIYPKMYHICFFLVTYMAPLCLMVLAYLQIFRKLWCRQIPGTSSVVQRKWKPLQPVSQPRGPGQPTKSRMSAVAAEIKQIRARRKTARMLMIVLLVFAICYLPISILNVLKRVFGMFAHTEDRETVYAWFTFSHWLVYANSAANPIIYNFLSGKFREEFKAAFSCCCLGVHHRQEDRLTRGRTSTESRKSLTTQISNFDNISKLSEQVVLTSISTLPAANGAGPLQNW
Method: as §1, §2, §3, §4, §5, §6

Cc1nc(C(=O)N2CCC2CNC(=O)c2c(C)nc3sccn23)c(-c2ccc(Cl)c(Cl)c2)s1 (racemic) [Example 32, (2RS)-6-Methyl-imidazo[2,1-b]thiazole-5-carboxylic acid{1-[5-(3,4-dichloro-phenyl)-2-methyl-thiazole-4-carbonyl]-azetidin-2-ylmethyl}-amide]
IC50 (human orexin-1 receptor): 75 nM | IC50 (human orexin-2 receptor): 25 nM

Cc1cccc(-c2sc(C)nc2C(=O)N2CCC2CNC(=O)c2nc3scc(C)n3c2C)c1 (racemic) [Example 40, (2RS)-3,5-Dimethyl-imidazo[2,1-b]thiazole-6-carboxylic acid [1-(2-methyl-5-m-tolyl-thiazole-4-carbonyl)-azetidin-2-ylmethyl]-amide]
IC50 (human orexin-1 receptor): 11 nM | IC50 (human orexin-2 receptor): 39 nM

Cc1cccc(-c2sc(C)nc2C(=O)N2CCC2CNC(=O)c2nc3sccn3c2C)c1 (racemic) [Example 42, (2RS)-5-Methyl-imidazo[2,1-b]thiazole-6-carboxylic acid [1-(2-methyl-5-m-tolyl-thiazole-4-carbonyl)-azetidin-2-ylmethyl]-amide]
IC50 (human orexin-1 receptor): 85 nM | IC50 (human orexin-2 receptor): 41 nM

Cc1cccc(-c2sc(C)nc2C(=O)N2CCC2CNC(=O)c2c(C(F)(F)F)nc3sccn23)c1 (racemic) [Example 50, (2RS)-6-Trifluoromethyl-imidazo[2,1-b]thiazole-5-carboxylic acid [1-(2-methyl-5-m-tolyl-thiazole-4-carbonyl)-azetidin-2-ylmethyl]-amide]
IC50 (human orexin-1 receptor): 391 nM | IC50 (human orexin-2 receptor): 57 nM

Cc1cccc(-c2sc(C)nc2C(=O)N2CCC2CNC(=O)c2cccc3c2OCCN3C)c1 (racemic) [Example 54, (2RS)-4-Methyl-3,4-dihydro-2H-benzo[1,4]oxazine-8-carboxylic acid [1-(2-methyl-5-m-tolyl-thiazole-4-carbonyl)-azetidin-2-ylmethyl]-amide]
IC50 (human orexin-1 receptor): 3100 nM | IC50 (human orexin-2 receptor): 13 nM

Cc1cccc(-c2sc(C)nc2C(=O)N2CCC2CNC(=O)c2cccc3c2OCCC3)c1 (racemic) [Example 57, (2RS)-Chroman-8-carboxylic acid [1-(2-methyl-5-m-tolyl-thiazole-4-carbonyl)-azetidin-2-ylmethyl]-amide]
IC50 (human orexin-1 receptor): 1200 nM | IC50 (human orexin-2 receptor): 19 nM

Cc1cccc(-c2sc(C)nc2C(=O)N2CCC2CNC(=O)c2cnc3scc(C)n23)c1 (racemic) [Example 61, (2RS)-3-Methyl-imidazo[2,1-b]thiazole-5-carboxylic acid [1-(2-methyl-5-m-tolyl-thiazole-4-carbonyl)-azetidin-2-ylmethyl]-amide]
IC50 (human orexin-1 receptor): 1920 nM | IC50 (human orexin-2 receptor): 43 nM

COc1ccccc1C(=O)N1CC[C@H]1CNC(=O)c1cccc2occc12 [Example 9, (2S)-benzofuran-4-carboxylic acid [1-(2-methoxy-benzoyl)-azetidin-2-ylmethyl]-amide]
IC50 (human orexin-1 receptor): 88 nM | IC50 (human orexin-2 receptor): 122 nM

Cc1nc(C(=O)N2CCC2CNC(=O)c2c(C)nc3sccn23)c(-c2cccc(F)c2)s1 (stereo not drawn) [Example 11, (2RS)-6-Methyl-imidazo[2,1-b]thiazole-5-carboxylic acid{1-[5-(3-fluoro-phenyl)-2-methyl-thiazole-4-carbonyl]-azetidin-2-ylmethyl}-amide]
IC50 (human orexin-1 receptor): 196 nM | IC50 (human orexin-2 receptor): 66 nM

Cc1ccc(-c2ccccc2C(=O)N2CC[C@H]2CNC(=O)c2cccc3occc23)cc1C [Example 15, (2S)-Benzofuran-4-carboxylic acid [1-(3′,4′-dimethyl-biphenyl-2-carbonyl)-azetidin-2-ylmethyl]-amide]
IC50 (human orexin-1 receptor): 70 nM | IC50 (human orexin-2 receptor): 11 nM

Cc1cccc(-c2sc(C)nc2C(=O)N2CC[C@H]2CNC(=O)c2c(Cl)nc3sccn23)c1 [Example 21, (2S)-6-Chloro-imidazo[2,1-b]thiazole-5-carboxylic acid [1-(2-methyl-5-m-tolyl-thiazole-4-carbonyl)-azetidin-2-ylmethyl]-amide]
IC50 (human orexin-1 receptor): 41 nM | IC50 (human orexin-2 receptor): 7 nM

Cc1cccc(-c2sc(N)nc2C(=O)N2CC[C@H]2CNC(=O)c2c(Cl)nc3sccn23)c1 [Example 22, (2S)-6-Chloro-imidazo[2,1-b]thiazole-5-carboxylic acid [1-(2-amino-5-m-tolyl-thiazole-4-carbonyl)-azetidin-2-ylmethyl]-amide]
IC50 (human orexin-1 receptor): 10 nM | IC50 (human orexin-2 receptor): 5 nM

COc1ccc(-c2sc(C)nc2C(=O)N2CCC2CNC(=O)c2c(C)nc3sccn23)cc1 (stereo not drawn) [Example 28, (2RS)-6-Methyl-imidazo[2,1-b]thiazole-5-carboxylic acid{1-[5-(4-methoxy-phenyl)-2-methyl-thiazole-4-carbonyl]-azetidin-2-ylmethyl}-amide]
IC50 (human orexin-1 receptor): 89 nM | IC50 (human orexin-2 receptor): 11 nM

Cc1nc(C(=O)N2CCC2CNC(=O)c2c(C)nc3sccn23)c(-c2ccc(F)c(F)c2)s1 (stereo not drawn) [Example 67, (2RS)-6-Methyl-imidazo[2,1-b]thiazole-5-carboxylic acid{1-[5-(3,4-difluoro-phenyl)-2-methyl-thiazole-4-carbonyl]-azetidin-2-ylmethyl}-amide]
IC50 (human orexin-1 receptor): 2010 nM | IC50 (human orexin-2 receptor): 102 nM

Cc1cccc(-c2oc(C)nc2C(=O)N2CCC2CNC(=O)c2c(C)nc3sccn23)c1 (stereo not drawn) [Example 83, (2RS)-6-Methyl-imidazo[2,1-b]thiazole-5-carboxylic acid [1-5-(2-methyl-5-m-tolyl-oxazole-4-carbonyl)-azetidin-2-ylmethyl]-amide]
IC50 (human orexin-1 receptor): 1640 nM | IC50 (human orexin-2 receptor): 406 nM
